Data from US12268227B2, “Production of flavor concentrates by osmosis” (SYMRISE AG, priority 2017, dated 2025).
Like-named read-outs stand apart in the source and are kept apart here.

Columns and labels:
[1] = log P (n-octanol/water partition coefficient) of aroma substances; type: physicochemical
Source text: [formula] • wherein: • C (n-octanol) is the concentration of the aroma substance in the n-octanol phase; and • C (water) is the concentration of the aroma substance in the water phase. The log K(n-octanol/water) is a dimensionless partition coefficient which indicates the ratio of the concentration of the aroma substance in a two-phase system of n-octanol and water. It is thus a model measure of the polarity or water/fat solubility of the aroma substance. Log P is a common physical parameter and is positive for lipophilic aroma substances and negative for hydrophilic aroma substances. The W parameter is therefore defined as follows: W=log10(SWF)

[2] = Odour threshold concentration in water
Method: The OAV value is defined as a measure of the significance of a specific component in the odour of a sample, for example, a foodstuff. The OAV value is calculated by dividing the concentration of a specific substance in the food (mg/kg) by the concentration threshold value of this substance in the food (mg/kg). If the OAV>1, the concentration of the substance exceeds the odour threshold concentration and the substance then makes a sensorial contribution to the overall profile.
The sensory recovery coefficient (SWF) of an aroma substance is composed of the log P of the aroma substance and the odour threshold concentration of the aroma substance (mg/kg in water) and is defined as follows: […]

Row | Structure (SMILES) | logP ([1]; read-out: logP) | logP [1] | Threshold ([2]; odour threshold concentration) | Threshold [2]
1 | CC=O [acetaldehyde] | -0.182 | – | – | 63 µg/kg in water
2 | CC(=O)O [acetic acid] | – | – | 180000 mg/kg in water | –
3 | CCCC(=O)O [butyric acid] | – | – | 1000 µg/kg in water | –
4 | CCO [ethanol] | – | – | 52000 mg/kg in water | –
5 | CCOC(C)=O [ethyl acetate] | – | – | 3120 µg/kg in water | –
6 | CCCCCC(=O)O [hexanoic acid] | 1.81 | – | 3940 µg/kg in water | –
7 | CCCCCCO [hexanol] | – | – | 50 µg/kg in water | –
8 | CO [methanol] | -0.358 | – | 369828 mg/kg in water | –
9 | CCCO [propanol] | – | – | – | 5700 µg/kg in water

Continued, in another order:

Row | logP ([1]; read-out: logP) | logP [1] | Structure (SMILES) | Threshold ([2]; odour threshold concentration) | Threshold [2]
10 | -0.508 | – | CC(=O)C(C)=O [2,3-butanedione] | 54 µg/kg in water | –
11 | 0.159 | – | CCC(=O)C(C)=O [2,3-pentanedione] | 5 µg/kg in water | –
12 | 1.4 | – | CCC(C)C=O (stereo not drawn) [2-methylbutyraldehyde] | 0.9 µg/kg in water | –
13 | 1.44 | – | CC/C=C\CCO [cis-3-hexenol] | – | –
14 | 1.49 | – | CCCC(=O)OCC [ethyl butanoate] | 1 µg/kg in water | –
15 | 2.41 | – | CCCCCC(=O)OCC [ethyl hexanoate] | 5 µg/kg in water | –
16 | – | 2.0901 | CCCCC1CCC(=O)O1 (stereo not drawn) [gamma-octalactone] | 24 µg/kg in water | –
17 | 3.19 | – | CC(C)=CCC/C(C)=C/C=O [geranial] | 320 µg/kg in water | –
18 | 1.85 | – | CCCCCC=O [hexanal] | 16 µg/kg in water | –
19 | 2.74 | – | C=CC(C)(O)CCC=C(C)C (stereo not drawn) [linalool] | 103 µg/kg in water | –
20 | 0.484 | – | CCC=O [propanal] | 170 µg/kg in water | –
